The structures appear in SMILES notation. Values after ≈ are worked out from the molar mass of the structure shown. Where two headings read alike, the source gives them in different places. Bounds are passed on as bounds.

The subject of the test is single drug resistant strains of M. tuberculosis. Description: microbe, parasite or virus in culture. The class given is cell-based. The following applies: for MIC: Mycobacterium tuberculosis.

With `CCOC(=O)Nc1cc2c(c(N)n1)N=C(c1ccccc1)CCN2` [SRI-7614, (1-Amino-8-phenyl-6,7-dihydro-5H-2,5,9-triaza-benzocyclohepten-3-yl)-carbamic acid ethyl ester], the “susceptibility of singly resistant strains” value is “uniformly susceptible”. Further, under “read-out: MIC, CS-R”, the MIC is 3.12 µg/mL (≈ 9.59 µM). Also, the MIC (read-out: MIC, EMB-R) was found to be 3.12 µg/mL (≈ 9.59 µM). The MIC (read-out: MIC, INH-R) is 6.25 µg/mL (≈ 19.2 µM). For the same compound, for the setting “read-out: MIC, KM-R”, the MIC is 6.25 µg/mL (≈ 19.2 µM). Moreover, the MIC (read-out: MIC, PZA-R) was 3.12 µg/mL (≈ 9.59 µM). Besides, under “read-out: MIC, RMP-R”, the MIC stood at 3.12 µg/mL (≈ 9.59 µM). Moreover, the MIC (read-out: MIC, TAC-R) came out at 3.12 µg/mL (≈ 9.59 µM).

In the case of `CCOC(=O)Nc1cc(NC(C)CCCN(CC)CC)c2nc(-c3ccccc3)c(-c3ccccc3)nc2n1` (stereo not shown) [SRI-3072, [8-(4-Diethylamino-1-methyl-butylamino)-2,3-diphenyl-pyrido[2,3-b]pyrazin-6-yl]-carbamic acid ethyl ester], the “susceptibility of singly resistant strains” value is on record as “uniformly susceptible”. Also, the MIC (read-out: MIC, EMB-R) was not above 0.1 µg/mL. Besides, the MIC (read-out: MIC, INH-R) amounted to 0.78 µg/mL (≈ 1.48 µM). Moreover, the MIC (read-out: MIC, KM-R) was not above 0.1 µg/mL. Moreover, the MIC (read-out: MIC, RMP-R) is not above 0.1 µg/mL.
